Source: patent publication US10238612B2, “Transdermal administration of tamsulosin” (Corium International, Inc., priority 2009, dated 2019)

Assay: Solubility of tamsulosin in DMSO and in mixtures of DMSO and water
Type: physicochemical
Source text: For example, dimethylsulfoxide (DMSO) may potentially be used. The table below gives some data on the solubility of tamsulosin in DMSO and in mixtures of DMSO and water: […]

CCOc1ccccc1OCCN[C@H](C)Cc1ccc(OC)c(S(N)(=O)=O)c1 [Tamsulosin, 5-[2-[[2-(2-ethoxyphenoxy)ethyl]amino]propyl]-2-methoxy-benzenesulfonamide]
Solubility of Tamsulosin (Water in DMSO 0 w/w %): 230 mg/g | Solubility of Tamsulosin (w/w %) (Water in DMSO 0 w/w %): 23.0 w/w % | Solubility of Tamsulosin (Water in DMSO 8.85 w/w %): 72.9 mg/g | Solubility of Tamsulosin (w/w %) (Water in DMSO 8.85 w/w %): 7.29 w/w % | Solubility of Tamsulosin (Water in DMSO 16.85 w/w %): 30.2 mg/g | Solubility of Tamsulosin (w/w %) (Water in DMSO 16.85 w/w %): 3.02 w/w % | Solubility of Tamsulosin (w/w %) (Water in DMSO 29.19 w/w %): 0.52 w/w %
